Source: patent publication EP3666760B1, “5-THIOISTIDINE COMPOUNDS AND METHYLATED DERIVATIVES (OVOTHIOLS) AS INHIBITORS OF GAMMA-GLUTAMYL-TRANSPEPTIDASE (GGT) ACTIVITY” (Stazione Zoologica "Anton Dohrn", priority 2018, dated 2020)
Where two headings read alike, the source gives them in different places.

Tests used:
keratinocytes HaCat = assay: Cell toxicity in human cell lines; assay type: cell-based; details: up to concentrations of 200 µM
HEK293 = assay: Cell toxicity in human cell lines; assay type: cell-based; details: up to concentrations of 200 µM; HEK293 (renal embryonic origin)
EqGGT = EqGGT (Equus caballus, UniProt A0A9L0SYL6); assay: GGT activity assay (colorimetric, GpNA donor / glycyl-glycine acceptor), IC50; assay type: biochemical, horse
Method: (§1) GGT activity assay: GGT activity was determined by a colorimetric test. The analysis buffer contains 100 mM Tris-HCl pH 7.8 or PBS 1X pH 7.4. Each reaction contains 1 mM of γ-glutamyl-para-nitroanilide (GpNA) as a donor substrate and 40 mM glycyl-glycine (glygly) as an acceptor substrate. The enzyme GGT purified from murine tissues or human cells, or from equine sources (purchased from Sigma) was added at the end to start the test. The formation of the product, p-nitroaniline, was continuously monitored at room temperature at 405 nm using a Bio-Rad 680 microplate reader with the Microplate Manager 5.2 software (Bio-Rad). One unit of GGT activity was defined as the amount of GGT that released 1 µmοl of p-nitroaniline/min at room temperature. The molecules tested as inhibitors, Erg, DON and DTT were purchased by Sigma Aldrich.
(§2) The enzymatic activity assays were carried out using the Tate & Meister spectrophotometric assay, using the γ-glutamyl-para-nitroanilide chromogen (GpNA) as a donor substrate, glycyl-glycine as a substrate and a purified commercial GGT solution as a biocatalyst from horse (EqGGT) with a high % identity with the human one. These assays were also performed in the presence of GGT isolated directly from the hepatic mouse tissues and/or from human cell cultures (hGGT). The inhibition of EqGGT and hGGT by 5-thio and ovothiol A was compared with that of Erg and the GGT DON commercial inhibitor. […] Instead, the already known GGT inhibitors are toxic at much lower concentrations.

GGT = GGT (Equus caballus, UniProt A0A9L0SYL6); assay: Kinetics of GGT inhibition (Ki) varying donor GpNA or acceptor Gly-Gly concentration; assay type: biochemical, horse; details: for type of inhibition: both with respect to the acceptor substrate and to the donor substrate, Vmax decreases, km almost unchanged; for Ki: average of Michaelis-Menten and Lineweaver-Burk
Method: as §1, §2
The inhibition constants Ki and GGT inactivation rate for 5-thio and ovothiol A were determined by varying both the concentrations of the GpNA donor substrate and maintaining the Gly-Gly acceptor concentrations fixed and vice versa, as shown in Figure 2. Ki (dissociation constant related to E) was calculated as a function of Vmax. For all the compounds the Vmax decreases as the concentration of inhibitor increases, while the km remains almost unchanged.

[1] = read-out: Ki (GpNA), varying donor substrate GpNA, Gly-Gly fixed

EqGGT, sequence (A0A9L0SYL6 entry or part of it): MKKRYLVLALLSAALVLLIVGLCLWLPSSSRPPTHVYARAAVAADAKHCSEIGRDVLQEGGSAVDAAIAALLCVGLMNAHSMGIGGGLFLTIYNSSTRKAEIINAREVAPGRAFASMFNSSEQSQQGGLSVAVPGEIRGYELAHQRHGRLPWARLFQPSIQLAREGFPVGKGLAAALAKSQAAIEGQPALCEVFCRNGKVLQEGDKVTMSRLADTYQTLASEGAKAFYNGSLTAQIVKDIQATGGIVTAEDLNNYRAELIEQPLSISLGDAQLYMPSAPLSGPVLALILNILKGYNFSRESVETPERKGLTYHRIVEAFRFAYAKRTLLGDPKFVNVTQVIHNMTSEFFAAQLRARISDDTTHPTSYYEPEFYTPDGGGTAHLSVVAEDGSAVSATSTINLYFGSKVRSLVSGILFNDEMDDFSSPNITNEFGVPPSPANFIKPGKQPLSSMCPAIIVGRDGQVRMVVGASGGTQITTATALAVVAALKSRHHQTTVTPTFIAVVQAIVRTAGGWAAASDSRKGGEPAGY
GGT, sequence (A0A9L0SYL6 entry or part of it): as above

NC(Cc1[nH]cnc1SSc1nc[nH]c1CC(N)C(=O)O)C(=O)O (stereo not shown)
cell toxicity (keratinocytes HaCat): no cell toxicity | cell toxicity (HEK293): no cell toxicity | IC50 (EqGGT; concentration inducing 50% inhibition of GGT activity, 1 mM GpNA, 40 mM glycyl-glycine, ovothiol A and 5-thio as disulfide, read-out: IC50): 13 µM | times more active than Erg and DON in inhibiting GGT activity (EqGGT; disulfide forms): 10-20 times | type of inhibition (GGT): non-competitive inhibitors | Ki (GGT; varying acceptor substrate Gly-Gly, GpNA fixed, read-out: Ki (gly-gly)): 17.4 ± 6.1 µM | Ki (GGT; varying donor substrate GpNA, Gly-Gly fixed, read-out: Ki (GpNA)): 6.9 ± 2.91 µM

[N-]=[N+]=CC(=O)CC[C@H](N)C(=O)O [DON, 6-diazo-5-oxo norleucine, reference compound]
IC50 (EqGGT): 250 µM | Ki (GGT; [1]): 156 ± 15.3 µM | Ki (GGT; read-out: Ki (gly-gly), varying acceptor substrate Gly-Gly, GpNA fixed): 200 ± 62.7 µM

C[N+](C)(C)C(Cc1cnc(S)[nH]1)C(=O)[O-] (stereo not drawn) [Erg, N-alpha-trimethyl-2-thiohistidine, reference compound]
IC50 (EqGGT; concentration inducing 50% inhibition of GGT activity, 1 mM GpNA, 40 mM glycyl-glycine, ovothiol A and 5-thio as disulfide): 277 µM | type of inhibition (GGT): non-competitive inhibitors | Ki (GGT; [1]): 229 ± 53.9 µM
